In US10112929B2, “Lactams as inhibitors of rock” (BRISTOL-MYERS SQUIBB COMPANY, priority 2015, dated 2018) one finds IC50 data, which are given here for 26 compounds.

This experiment concerns the target ROCK2 (Homo sapiens (Human), UniProt O75116). The experiment in a line: biochemical.

Counter-ions that a name gives are not always drawn.
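Further: rho kinase enzyme reaction halted with EDTA, phospho- and non-phospho peptide separated for read-out, kinase activity inhibition derived across a dose-response series, DMSO under 2%.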

ROCK2, sequence (O75116 whole entry, species assumed): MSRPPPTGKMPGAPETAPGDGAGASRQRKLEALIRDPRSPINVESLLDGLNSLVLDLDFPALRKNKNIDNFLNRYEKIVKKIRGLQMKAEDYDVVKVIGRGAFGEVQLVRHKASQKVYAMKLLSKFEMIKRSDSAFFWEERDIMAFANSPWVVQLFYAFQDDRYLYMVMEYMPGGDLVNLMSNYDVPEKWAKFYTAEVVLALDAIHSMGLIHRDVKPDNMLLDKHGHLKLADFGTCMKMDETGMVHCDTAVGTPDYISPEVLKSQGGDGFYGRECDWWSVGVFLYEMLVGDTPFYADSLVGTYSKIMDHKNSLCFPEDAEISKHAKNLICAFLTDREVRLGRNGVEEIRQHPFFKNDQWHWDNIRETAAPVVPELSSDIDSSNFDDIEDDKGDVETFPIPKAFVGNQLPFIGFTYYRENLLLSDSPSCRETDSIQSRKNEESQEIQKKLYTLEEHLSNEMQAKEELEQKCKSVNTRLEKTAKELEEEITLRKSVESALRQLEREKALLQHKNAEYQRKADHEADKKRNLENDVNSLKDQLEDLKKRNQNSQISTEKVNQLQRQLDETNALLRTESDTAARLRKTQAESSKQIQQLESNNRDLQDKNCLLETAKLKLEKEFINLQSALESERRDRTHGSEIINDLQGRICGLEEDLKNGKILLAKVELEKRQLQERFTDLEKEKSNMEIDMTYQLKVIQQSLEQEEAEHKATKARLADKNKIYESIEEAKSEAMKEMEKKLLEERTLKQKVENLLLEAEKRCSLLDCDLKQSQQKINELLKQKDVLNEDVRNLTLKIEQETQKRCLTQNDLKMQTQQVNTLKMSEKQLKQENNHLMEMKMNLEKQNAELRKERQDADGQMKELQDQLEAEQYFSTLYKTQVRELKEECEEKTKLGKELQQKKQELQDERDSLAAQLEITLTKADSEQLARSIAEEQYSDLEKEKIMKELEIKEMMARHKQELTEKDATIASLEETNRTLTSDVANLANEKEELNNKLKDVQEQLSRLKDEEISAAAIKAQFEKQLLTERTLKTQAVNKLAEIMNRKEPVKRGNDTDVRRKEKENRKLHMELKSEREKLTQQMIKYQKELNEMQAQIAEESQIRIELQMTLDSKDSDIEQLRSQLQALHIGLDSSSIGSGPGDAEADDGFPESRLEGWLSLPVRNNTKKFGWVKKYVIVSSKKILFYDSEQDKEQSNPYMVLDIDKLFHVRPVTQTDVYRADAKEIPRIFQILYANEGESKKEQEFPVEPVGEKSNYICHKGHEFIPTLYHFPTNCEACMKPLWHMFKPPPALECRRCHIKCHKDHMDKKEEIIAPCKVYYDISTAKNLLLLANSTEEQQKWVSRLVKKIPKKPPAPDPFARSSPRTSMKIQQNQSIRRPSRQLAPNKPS

As a reminder, the IC50 is the point on the concentration scale where inhibition reaches its midpoint. On to `CCOc1cc(N2CCC(Nc3cccc(OC)c3)C2=O)ccc1-c1cn[nH]c1` (single isomer, unassigned) [Example 34, 1-(3-ethoxy-4-(1H-pyrazol-4-yl)phenyl)-3-((3-methoxyphenyl)amino)pyrrolidin-2-one], for which the IC50 was < 10 nM. Next, `O=C1[C@H](Nc2ccc3c(c2)OCO3)CCN1c1ccc(-c2cn[nH]c2)cc1` [Example 396, (R)-1-(4-(1H-pyrazol-4-yl)phenyl)-3-(benzo[d][1,3]dioxo1-5-ylamino)pyrrolidin-2-one]: 10 to 100 nM. Next, `COc1cccc(NC2CCN(c3ccc(-c4ccnc5[nH]ccc45)cc3)C2=O)c1` (single isomer, unassigned) [Example 80, 1-(4-(1H-pyrrolo[2,3-b]pyridin-4-yl)phenyl)-3-((3-methoxyphenyl)amino) pyrrolidin-2-one]: 100 to 2200 nM; `O=C1C(NCc2cccc(F)c2)CCN1c1ccc(-c2cn[nH]c2)cc1` (centres unmarked) [Example 61, 1-(4-(1H-pyrazol-4-yl)phenyl)-3-((3-fluorobenzyl)amino)pyrrolidin-2-one, TFA]: 100 to 2200 nM; `COc1cccc(CCC2CCN(c3ccc(-c4cn[nH]c4)cc3)C2=O)c1` (centres unmarked) [Example 99, 1-(4-(1H-pyrazol-4-yl)phenyl)-3-(3-methoxyphenethyl)pyrrolidin-2-one]: 10 to 100 nM. Under `COc1cc(F)cc(NC2CCN(c3ccc(-c4cn[nH]c4)cn3)C2=O)c1` (centres unmarked) [Example 82, 1-(5-(1H-pyrazol-4-yl)pyridin-2-yl)-3-((3-fluoro-5-methoxyphenyl)amino)pyrrolidin-2-one] stands < 10 nM; under `O=C1C(Nc2cccc(F)c2)CCN1c1ccc(-c2cn[nH]c2)cc1` (centres unmarked) [Example 62, 1-(4-(1H-pyrazol-4-yl)phenyl)-3-((3-fluorophenyl)amino)pyrrolidin-2-one], < 10 nM; under `COc1nc(N2CCC(Nc3ccc4c(c3)OCCO4)C2=O)ccc1-c1cn[nH]c1` (racemic) [Example 256, 3-((2,3-dihydrobenzo[b][l,4]dioxin-6-yl)amino)-1-(6-methoxy-5-(1H-pyrazol-4-yl)pyridin-2-yl)pyrrolidin-2-one], 10 to 100 nM.

Regarding `COc1nc(N2CCC(Nc3cccc(OC(F)F)c3)C2=O)ccc1-c1cn[nH]c1` (single isomer, unassigned) [Example 220, 3-((3-(difluoromethoxy)phenyl)amino)-1-(6-methoxy-5-(1H-pyrazol-4-yl)pyridin-2-yl)pyrrolidin-2-one], the IC50 is < 10 nM. `O=C1C(Nc2cnccn2)CCN1c1ccc(-c2cn[nH]c2)cc1` (racemic) [Example 226, 1-(4-(1H-pyrazol-4-yl)phenyl)-3-(pyrazin-2-ylamino)pyrrolidin-2-one] yielded an IC50 of 10 to 100 nM. Next, `COc1cccc(NC2CCN(c3ccc(-c4ccnc5[nH]ccc45)c(OC)n3)C2=O)c1` (racemic) [Example 128, 1-(6-methoxy-5-(1H-pyrrolo[2,3-b]pyridin-4-yl)pyridin-2-yl)-3-((3-methoxyphenyl)amino) pyrrolidin-2-one]: 10 to 100 nM; `COc1nc(N2CCC(Nc3cccc(OCC4CC4)c3)C2=O)ccc1-c1cn[nH]c1` (single isomer, unassigned) [Example 214, 3-((3-(cyclopropylmethoxy)phenyl)amino)-1-(6-methoxy-5-(1H-pyrazol-4-yl)pyridin-2-yl)pyrrolidin-2-one]: < 10 nM. As to `COc1cc(NC2CCN(c3ccc(-c4cn[nH]c4)c(F)c3)C2=O)ccc1F` (single isomer, unassigned) [Example 332, 3-((4-fluoro-3-methoxyphenyl)amino)-1-(3-fluoro-4-(1H-pyrazol-4-yl)phenyl) pyrrolidin-2-one], the IC50 was < 10 nM. Under `O=C1C(Nc2ccccc2)CCN1c1ccc(-c2cn[nH]c2)cc1` (centres unmarked) [Example 58, 1-(4-(1H-pyrazol-4-yl)phenyl)-3-(phenylamino)pyrrolidin-2-one] stands 10 to 100 nM. Under `COc1cc(NC2CCN(c3ccc(-c4cn[nH]c4)c(C(F)F)c3)C2=O)ccc1F` (single isomer, unassigned) [Example 179, 1-(3-(difluoromethyl)-4-(1H-pyrazol-4-yl)phenyl)-3-((4-fluoro-3-methoxyphenyl)amino)pyrrolidin-2-one] stands 10 to 100 nM.

Turning to `COc1cccc(NC2CCN(c3ccc(-c4ccncc4F)c(OC)n3)C2=O)c1` (centres unmarked) [Example 118, 1-(3′-Fluoro-2-methoxy-[3,4′-bipyridin]-6-yl)-3-((3-methoxyphenyl)amino) pyrrolidin-2-one], the IC50 is < 10 nM. Next, `CCOc1cccc(NC2CCN(c3ccc(-c4cn[nH]c4)c(OC)c3)C2=O)c1` (single isomer, unassigned) [Example 249, 3-((3-ethoxyphenyl)amino)-1-(3-methoxy-4-(1H-pyrazol-4-yl)phenyl)pyrrolidin-2-one]: 10 to 100 nM. Under `COc1cccc(NC2CCN(c3ccc(-c4cn[nH]c4)c(C4CC4)c3)C2=O)c1` (single isomer, unassigned) [Example 363, 1-(3-cyclopropyl-4-(1H-pyrazol-4-yl)phenyl)-3-((3-methoxyphenyl)amino) pyrrolidin-2-one] stands 10 to 100 nM. Under `COc1cc(F)cc(NC2CCN(c3ccc(-c4cn[nH]c4)cc3)C2=O)c1` (centres unmarked) [Example 3, 1-(4-(1H-pyrazol-4-yl)phenyl)-3-((3-fluoro-5-methoxyphenyl)amino)pyrrolidin-2-one] stands < 10 nM; under `COc1nc(N2CCC(Nc3cccc(C(N)=O)c3)C2=O)ccc1-c1cn[nH]c1` (racemic) [Example 258, 3-((1-(6-methoxy-5-(1H-pyrazol-4-yl)pyridin-2-yl)-2-oxopyrrolidin-3-yl)amino)benzamide], < 10 nM; under `COc1cc(N2CCC(Nc3cccc(F)c3OC)C2=O)ccc1-c1cn[nH]c1` (single isomer, unassigned) [Example 151, 3-((3-fluoro-2-methoxyphenyl)amino)-1-(3-methoxy-4-(1H-pyrazol-4-yl)phenyl) pyrrolidin-2-one], < 10 nM.

Consider `CCc1nc(N2CCC(Nc3cc(F)cc(OC)c3)C2=O)ccc1-c1cn[nH]c1` (single isomer, unassigned) [Example 316, 1-(6-ethyl-5-(1H-pyrazol-4-yl)pyridin-2-yl)-3-((3-fluoro-5-methoxyphenyl)amino) pyrrolidin-2-one], for which the IC50 was < 10 nM.

On to `COc1cc(NC2CCN(c3ccc(-c4cn[nH]c4)cc3)C2=O)cc(OC)c1` (single isomer, unassigned) [Example 21, 1-(4-(1H-pyrazol-4-yl)phenyl)-3-((3,5-dimethoxyphenyl)amino)pyrrolidin-2-one], for which the IC50 was in the range of 100 to 2200 nM. Next, `COc1cccc(NC2CCN(c3ccc(-c4cn[nH]c4)c(C(F)F)c3)C2=O)c1` (single isomer, unassigned) [Example 176, 1-(3-(difluoromethyl)-4-(1H-pyrazol-4-yl)phenyl)-3-((3-methoxyphenyl)amino) pyrrolidin-2-one]: 10 to 100 nM. Next, `O=C1C(Oc2ccccc2)CCN1c1ccc(-c2cn[nH]c2)cc1` (centres unmarked) [Example 64, 1-(4-(1H-pyrazol-4-yl)phenyl)-3-phenoxypyrrolidin-2-one]: 10 to 100 nM. Next, `COc1cc(F)cc(NC2CCN(c3ccc(-c4cn[nH]c4)cc3)C2=O)c1` (single isomer, unassigned) [Example 26, 1-(4-(1H-pyrazol-4-yl)phenyl)-3-((3-fluoro-5-methoxyphenyl)amino)pyrrolidin-2-one]: < 10 nM.
